“And” between values parts separate entries of the source, which are not always exact repeats. Equal values may be shown once.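 These data come from cells grown in 96-well plates and exposed to compound for 48 hours at five concentrations. At the GI50, growth is halved. TGI: concentration producing complete growth inhibition.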
What was measured:
Assay in all cases: NCI tumour cell line growth inhibition, 48 h
[1] = test system: SNB-19 CNS
[2] = test system: HOP-92 NSCLC
[3] = test system: SF-539 CNS
[4] = test system: CAKI-1 renal
[5] = test system: EKVX NSCLC
[6] = test system: NCI/ADR-RES ovarian
[7] = test system: MOLT-4 leukemia
[8] = test system: T-47D breast
[9] = test system: MALME-3M melanoma
[10] = test system: 786-0 renal

`Cn1c2ccccc2c2nnc(NNCc3ccccn3)nc21` gave a GI50 [1] of 0.597 µM, a TGI [1] of 17.4 µM and a GI50 [2] of 0.279 µM. The TGI [2] was 5.91 µM, the GI50 [3] was 0.393 µM and the TGI [3] was 3.38 µM. The GI50 [4] was 0.248 µM, the TGI [4] was 1.63 µM and the GI50 [5] was 0.406 µM. The TGI [5] was 15.2 µM, the GI50 [6] was 0.276 µM and the TGI [6] was 3.22 µM. It also gave a GI50 [7] of 0.38 µM, a TGI [7] of 12.6 µM and a GI50 [8] of 0.369 µM. For the same compound, the TGI [8] was 8.98 µM, the GI50 [9] was 0.4 µM and the TGI [9] was 4.37 µM. The GI50 [10] was 0.327 µM and the TGI [10] was 4.51 µM.

With `COc1ccc2nccc(/C=C/c3ccnc4ccc(OC)cc34)c2c1` the GI50 [1] was greater than 100 µM, the TGI [1] was greater than 100 µM and the GI50 [2] was 8.11 µM. It also gave a TGI [2] greater than 56.9 µM, a GI50 [3] greater than 93.1 µM and a TGI [3] greater than 100 µM. It also gave a GI50 [4] greater than 82.4 µM, a TGI [4] greater than 100 µM and a GI50 [5] greater than 61.2 µM. For the same compound, the TGI [5] was greater than 100 µM, the GI50 [6] was greater than 100 µM and the TGI [6] was greater than 100 µM. The GI50 [7] was greater than 55.1 µM, the TGI [7] was greater than 100 µM and the GI50 [8] was 43.8 µM. It also gave a TGI [8] greater than 87.3 µM, a GI50 [9] of 22.1 µM and a TGI [9] of 48.1 µM. It also gave a GI50 [10] greater than 100 µM and a TGI [10] greater than 100 µM.

With `Nc1ncnc2nn(C3OC(CO)C(O)C3O)nc12` (stereo not drawn) the TGI [1] was 99.1 µM, the TGI [2] was greater than 100 µM and the TGI [3] was 58.5 µM. The TGI [4] was greater than 100 µM, the TGI [5] was greater than 100 µM and the TGI [6] was greater than 86.8 µM. For the same compound, the TGI [7] was greater than 66.2 µM, the TGI [8] was greater than 44.5 µM and the TGI [9] was greater than 100 µM. It also gave a TGI [10] greater than 100 µM.

`CN(C)c1ccc(/C=N/NC(=O)c2cccc3ccccc23)c(Cl)c1` showed a GI50 [1] of 15.5 µM, a TGI [1] greater than 100 µM and a GI50 [2] of 0.372 µM. For the same compound, the TGI [2] was 19.6 µM, the GI50 [3] was 1.73 µM and the TGI [3] was 26.1 µM. It also gave a GI50 [4] of 0.527 µM, a TGI [4] of 8.04 µM and a GI50 [5] of 3.51 µM. For the same compound, the TGI [5] was greater than 100 µM, the GI50 [6] was 1.02 µM and the TGI [6] was greater than 100 µM. It also gave a GI50 [7] of 2.31 µM, a TGI [7] greater than 100 µM and a GI50 [8] of 2.95 µM. The TGI [8] was greater than 100 µM, the GI50 [9] was 1.29 µM and the TGI [9] was 69.2 µM. The GI50 [10] was 5.87 µM and the TGI [10] was greater than 100 µM.

Compound `CN1CCN(c2ccc(C(=O)Nc3cccc(C#Cc4cccc5[nH]nc(N)c45)c3)cc2C(F)(F)F)CC1` has a GI50 [1] of 1.68 µM, a TGI [1] of 4.92 µM and a GI50 [2] of 1.02 µM. It also gave a TGI [2] of 4.07 µM, a GI50 [3] of 0.544 µM and a TGI [3] of 1.16 µM. For the same compound, the GI50 [4] was 0.668 µM, the TGI [4] was 1.51 µM and the GI50 [5] was 1.6 µM. The TGI [5] was 5.63 µM, the GI50 [6] was 0.99 µM and the TGI [6] was 2.82 µM. For the same compound, the GI50 [7] was 0.645 µM, the TGI [7] was 1.57 µM and the GI50 [8] was 1.24 µM. The TGI [8] was 5.55 µM, the GI50 [9] was 0.651 µM and the TGI [9] was 1.62 µM. The GI50 [10] was 2.05 µM and the TGI [10] was 5.04 µM.

Work on `CCN1C(=O)N(CC)C2C1NN=c1s/c(=C\c3cccc([N+](=O)[O-])c3)c(=O)n12` (stereo not drawn) yielded a GI50 [1] of 0.128 µM, a TGI [1] greater than 100 µM and a GI50 [2] of 4.05 µM. The TGI [2] was greater than 100 µM, the GI50 [3] was 0.0397 µM and the TGI [3] was 0.396 µM. The GI50 [4] was 0.052 µM, the TGI [4] was greater than 100 µM and the GI50 [5] was 0.382 µM. It also gave a TGI [5] greater than 100 µM, a GI50 [6] of 0.0443 µM and a TGI [6] of 0.703 µM. It also gave a GI50 [7] of 0.24 µM, a TGI [7] greater than 100 µM and a TGI [8] greater than 100 µM. It also gave a GI50 [9] of 0.0812 µM, a TGI [9] greater than 100 µM and a GI50 [10] of 0.143 µM. For the same compound, the TGI [10] was greater than 100 µM.

`CC(=O)NC1=C(Sc2ccc(Cl)cc2)C(=O)c2ccccc2C1=O` showed a TGI [1] of 28.6 µM, a TGI [2] of 5.67 µM and a TGI [3] of 5.85 µM. It also gave a TGI [4] of 14.6 µM, a TGI [5] of 18.9 µM and a TGI [6] of 6.31 µM. The TGI [7] was 1.7 µM, the TGI [8] was 4.95 µM and the TGI [9] was 8 µM. It also gave a TGI [10] of 4.16 µM.

`CSc1nc(N)c2c(n1)NC(c1ccccc1)C1CCc3ccccc3C1=N2` (stereo not drawn) gave a GI50 [1] greater than 100 µM, a TGI [1] greater than 100 µM and a GI50 [2] of 3.08 µM. It also gave a TGI [2] greater than 100 µM, a GI50 [3] greater than 100 µM and a TGI [3] greater than 100 µM. For the same compound, the GI50 [4] was 31.3 µM, the TGI [4] was greater than 100 µM and the GI50 [5] was 7 µM. The TGI [5] was greater than 100 µM, the GI50 [6] was 5.58 µM and the TGI [6] was greater than 100 µM. For the same compound, the GI50 [7] was 1.85 µM, the TGI [7] was 38.8 µM and the GI50 [8] was 2.27 µM. The TGI [8] was 15.7 µM, the GI50 [9] was greater than 100 µM and the TGI [9] was greater than 100 µM. It also gave a GI50 [10] greater than 100 µM and a TGI [10] greater than 100 µM.

`CC(C)(C)OC(=O)NCCCCCCCCCCn1c2c(c3ccccc3c1=O)C(=O)c1ccccc1-2` showed a GI50 [1] of 44.1 µM, a TGI [1] greater than 100 µM and a GI50 [2] of 9.92 µM. For the same compound, the TGI [2] was 35.2 µM, the GI50 [3] was 43.1 µM and the TGI [3] was greater than 100 µM. It also gave a GI50 [4] of 27.9 µM, a TGI [4] greater than 100 µM and a GI50 [5] greater than 100 µM. It also gave a TGI [5] greater than 100 µM, a GI50 [6] greater than 100 µM and a TGI [6] greater than 100 µM. It also gave a GI50 [7] of 16.2 µM, a TGI [7] of 31.2 µM and a GI50 [8] greater than 100 µM. It also gave a TGI [8] greater than 100 µM, a GI50 [9] greater than 100 µM and a TGI [9] greater than 100 µM. The GI50 [10] was 20.2 µM and the TGI [10] was greater than 100 µM.

In the case of `C[C@@](O)(/C=C/[C@H]1CC=CC(=O)O1)[C@@H](C[C@@H](O)\C=C/C=C\C=C\CO)OP(=O)(O)O`, the GI50 [1] is reported as 20.7 µM, the TGI [1] is reported as 92.6 µM and 184 µM and the TGI [2] is reported as 10.6 µM. For the same compound, the GI50 [3] was 5.28 µM, the TGI [3] was 11.5 µM and 23 µM and the TGI [4] was 4.66 µM. The GI50 [5] was 14.7 µM, the TGI [5] was 65.6 µM and 49.1 µM and the TGI [6] was 143 µM. The GI50 [7] was 13.4 µM and 3.71 µM, the TGI [8] was 161 µM and the GI50 [9] was 6.94 µM. The TGI [9] was 16 µM and 14.3 µM and the TGI [10] was 20.2 µM.

For `Clc1ccc(N2CCC(N3CCCC3)CC2)cc1-c1nc2ccccc2[nH]1`, the GI50 [1] was 33.7 µM, the TGI [1] was greater than 100 µM and the GI50 [2] was 13.4 µM. The TGI [2] was 42.8 µM, the GI50 [3] was 17 µM and the TGI [3] was 32.1 µM. The GI50 [4] was 19.3 µM, the TGI [4] was 50 µM and the GI50 [5] was 37.9 µM. The TGI [5] was greater than 100 µM, the GI50 [6] was 29.4 µM and the TGI [6] was greater than 100 µM. For the same compound, the GI50 [7] was 23.2 µM, the TGI [7] was 67.7 µM and the GI50 [8] was 21.6 µM. For the same compound, the TGI [8] was 88.1 µM, the GI50 [9] was 17.4 µM and the TGI [9] was 33.6 µM. The GI50 [10] was 14.7 µM and the TGI [10] was 28.7 µM.

Work on `Nc1cc2nc3ccccc3oc-2cc1=O` yielded a GI50 [1] of 5.44 µM, a TGI [1] of 16 µM and a GI50 [2] greater than 45 µM. It also gave a TGI [2] greater than 100 µM, a GI50 [3] of 2.45 µM and a TGI [3] of 6.75 µM. For the same compound, the GI50 [4] was 15.3 µM, the TGI [4] was greater than 53.7 µM and the GI50 [5] was 7.38 µM. The TGI [5] was greater than 64.2 µM, the GI50 [6] was 9.16 µM and the TGI [6] was greater than 88.9 µM. It also gave a GI50 [7] of 10.1 µM, a TGI [7] greater than 63.2 µM and a GI50 [8] of 14.9 µM. It also gave a TGI [8] greater than 100 µM, a GI50 [9] of 1.67 µM and a TGI [9] of 3.63 µM. The GI50 [10] was 20.7 µM and the TGI [10] was greater than 83.4 µM.

For `CNC(=O)c1cc2c(Oc3ccc(NC(=S)NC(=O)Cc4ccccc4)cc3F)ccnc2cc1OC`, the GI50 [1] was greater than 100 µM, the TGI [1] was greater than 100 µM and the GI50 [2] was 1.67 µM. For the same compound, the TGI [2] was greater than 100 µM, the GI50 [3] was 0.549 µM and the TGI [3] was greater than 30.3 µM. It also gave a GI50 [4] of 4.23 µM, a TGI [4] greater than 100 µM and a GI50 [5] greater than 100 µM. For the same compound, the TGI [5] was greater than 100 µM, the GI50 [6] was 7.01 µM and the TGI [6] was greater than 100 µM. It also gave a GI50 [7] of 3.47 µM, a TGI [7] greater than 100 µM and a GI50 [8] of 2.8 µM. The TGI [8] was greater than 100 µM, the GI50 [9] was 8.85 µM and the TGI [9] was greater than 100 µM. The GI50 [10] was 5.75 µM and the TGI [10] was greater than 100 µM.
